In US5137905A, “Heterocyclic acetylenic amines having central nervous system activity” (The Upjohn Company, priority 1991, dated 1992) one finds ED50 and Ki data, which are given here for 25 compounds.

The test system of test [1] is HCl-induced writhing. Put plainly: HCl writhing protection (analgesic activity). To be noted: Mus musculus, sc, read-out: CNS Id (ED50 mg/kg) HCl Writh. Protect. Type of test: in vivo, CF1 mice. The method, then: For determination of analgesic activity, the test compound was injected subcutaneously into a group of four CF1 mice. Thirty minutes later the mice were injected i.p. with 0.15% HCl, 10 ml./kg. Mice were then placed in plastic boxes and observed for fifteen minutes to record the number of animals failing to writhe.

Test [2] deals with CNS cholinergic receptor. The following applies: tritiated quinuclidine benzylate (QNB); read-out: CNS Cholinergic Receptor Binding Assays K1 QNB.
Test [3] addresses CNS cholinergic receptor. Put plainly: CNS cholinergic receptor binding, oxotremorine M ligand. To be noted: tritiated oxotremorine M; read-out: CNS Cholinergic Receptor Binding Assays K1 Oxotremorine.
In test [4] the test system is oxotremorine-induced body tremor. Description: Oxotremorine antagonist assay (body tremor). The test is classed as in vivo, mice. To be noted: Mus musculus, ip; read-out: Oxot. Antagonist Tremor (ED50). The procedure: Oxotremorine antagonist assays were performed on groups of six mice weighing 18-22 g. Each was dosed intraperitoneally with the test compound prepared in 0.25% methylcellulose and were placed in individual cages. Twenty minutes later the mice were injected subcutaneously with 0.5 mg/kg of oxotremorine dissolved in saline. Ten minutes later the mice were scored for body tremor. Doses of the compound under study began at 100 mg/kg and were decreased at a 0.5 log interval until no responders were obtained.

Where [5] appears, read: ED50, s.c. in CF1 mice, 30 min before i.p. 0.15% HCl.

Read-outs that look alike come from different tables or passages of the source.

`CN(C)CC#CCN1CCN(C)C1=O` [Compound 10, 1-[4-(1-Dimethylamino)-2-butynyl]-3-methyl-2-imidazolidinone]: the ED50 in test [1] (setting [5]) was above 13 mg/kg; in test [4] it was above 10 mg/kg. Besides, the Ki in test [2] was found to be 180 nM; in test [3] it was 4.5 nM.

Regarding `CN(C)CC#CCN1CCN(C(=O)OC(C)(C)C)C1=O` [Compound 11, t-Butyl 3-[4-(dimethylamino)-2-butynyl]-2-oxo-1-imidazolidinecarboxylate], the figures for the ED50 in test [1] (setting [5]) and in test [4] were above 50 mg/kg and above 100 mg/kg, respectively. Also, the values for the Ki in test [2] and in test [3] were 4700 nM and 160 nM, respectively.

In the case of `C#CCN1CCN(CC#CCN2CCCC2)C1=O` [Compound 14, 1-(2-Propynyl)-3-[4-(1-pyrrolidinyl)-2-butynyl]-2-imidazolidinone], the values for the ED50 in test [1] (setting [5]) and in test [4] were above 25 mg/kg and above 30 mg/kg, respectively. For the same compound, the Ki in test [2] was 2300 nM; in test [3], 200 nM.

As to `CC1CN(CC#CCN2CCCC2)C(=O)N1` (stereo not shown) [Compound 15, 4-Methyl-1-[4-(1-pyrrolidinyl)-2-butynyl]-2-imidazolidinone], the ED50 in test [1] (setting [5]) is above 13 mg/kg; in test [4], above 10 mg/kg. Besides, the Ki in test [2] was 1000 nM; in test [3], 140 nM.

Consider `CC1(C)CNC(=O)N1CC#CCN1CCCC1` [Compound 16, 5,5-Dimethyl-1-[4-(1-pyrrolidinyl)-2-butynyl]-2-imidazolidinone], for which the ED50 was 25 mg/kg in test [1] (setting [5]) and above 100 mg/kg in test [4]. For the same compound, the Ki in test [2] was found to be 1000 nM; in test [3] it was 290 nM.

Take `CC1CN(CC#CCN2CCCC2)C(=O)N1C(=O)OC(C)(C)C` (stereo not shown) [Compound 17, t-Butyl 5-methyl-2-oxo-3-[4-(1-pyrrolidinyl)-2-butynyl]-1-imidazolidinecarboxylate]: the ED50 in test [1] (setting [5]) was above 25 mg/kg; in test [4], above 100 mg/kg. Further, the Ki was determined as 2700 nM in test [2] and 810 nM in test [3].

Regarding `CC1CN(C(=O)OC(C)(C)C)C(=O)N1CC#CCN1CCCC1` (stereo not shown) [Compound 18, t-Butyl 4-methyl-2-oxo-3-[4-(1-pyrrolidinyl)-2-butynyl]-1-imidazolidinecarboxylate], the ED50 in test [1] (setting [5]) is 25 mg/kg; in test [4], above 30 mg/kg. The Ki in test [2] turned out to be 820 nM; in test [3], 180 nM.

Consider `CC1CN(C)C(=O)N1CC#CCN1CCCC1` (stereo not shown) [Compound 19, 1,4Dimethyl-3-[4-(1-pyrrolidinyl)-2-butynyl]-2-imidazolidinone], for which the results for the ED50 in test [1] (setting [5]) and in test [4] were above 13 mg/kg and 6.6 mg/kg, respectively. Besides, the Ki in test [2] worked out at 20 nM; in test [3] it was 4 nM.

With `O=C1N(CC#CCN2CCCC2)CCN1c1ccccc1` [Compound 20, 1-Phenyl-3-[4-(1-pyrrolidinyl)-2-butynyl]-2-imidazolidinone], the ED50 was above 25 mg/kg in test [1] (setting [5]) and above 30 mg/kg in test [4]. Besides, the Ki in test [2] is 170 nM; in test [3], 69 nM.

Consider `CN(C)CC#CCN1CCN(c2ccccc2)C1=O` [Compound 21, 1-[4-(Dimethylamino)-2-butynyl]-3-phenyl-2-imidazolidinone], for which the ED50 in test [1] (setting [5]) was above 50 mg/kg; in test [4], above 100 mg/kg. The results for the Ki in test [2] and in test [3] were above 10000 nM and 840 nM, respectively.

Take `CC(C)(C)OC(=O)N1CCC[C@@H]1C#CCN1CCCC1` [Compound 49A, (R)-t-Butyl 2-[3-(1-pyrrolidinyl)-1-propynyl]-1-pyrrolidine-carboxylate]: the values for the ED50 in test [1] (setting [5]) and in test [4] were 13 mg/kg and 100 mg/kg, respectively. The Ki in test [2] turned out to be 430 nM; in test [3] it was 20 nM.

As to `CC(C)(C)OC(=O)N1CCC[C@H]1C#CCN1CCCC1` [Compound 49B, (S)-t-Butyl 2-[3-(1-pyrrolidinyl)-1-propynyl]-1-pyrrolidinecarboxylate], the ED50 in test [1] (setting [5]) is above 50 mg/kg; in test [4] it was above 100 mg/kg. The values for the Ki in test [2] and in test [3] were above 10000 nM and 3500 nM, respectively.

Regarding `CN(C)CC#C[C@H]1CCCN1C(=O)OC(C)(C)C` [Compound 49C, (R)-t-Butyl 2-[3-(dimethylamino)-1-propynyl]-1-pyrrolidinecarboxylate], the ED50 was above 50 mg/kg in test [1] (setting [5]) and above 100 mg/kg in test [4]. Further, the Ki in test [2] is above 10000 nM; in test [3], 44 nM.

`CN(C)CC#C[C@H]1CCCN1` [Compound 50C, (R)-N,N-dimethyl-3-(2-pyrrolidinyl)-2-propyn-1-amine]: the ED50 in test [1] was above 50 mg/kg; in test [4], above 100 mg/kg. The Ki in test [2] is above 1000 nM; in test [3], 970 nM.

As for `CN(C)CC#C[C@@H]1CCCN1` [Compound 50D, (S)-N,N-dimethyl-3-(2-pyrrolidinyl)-2-propyn-1-amine], the ED50 in test [1] (setting [5]) was above 50 mg/kg; in test [4], above 100 mg/kg. Moreover, the Ki in test [2] and in test [3] was above 10000 nM in each case.

With `CC(=O)N1CCC[C@@H]1C#CCN(C)C` [Compound 51C, (R)-1-Acetyl-2-[3-(dimethylamino)-1-propynyl]pyrrolidine], the ED50 was above 50 mg/kg in test [1] (setting [5]) and above 100 mg/kg in test [4]. The Ki in test [2] is above 10000 nM; in test [3] it was 130 nM.

`CC(=O)N1CCC[C@H]1C#CCN(C)C` [Compound 51D, (S)-1-Acetyl-2-[3-(dimethylamino)-1-propynyl]pyrrolidine]: the ED50 in test [1] (setting [5]) is above 50 mg/kg; in test [4], above 100 mg/kg. Moreover, the results for the Ki in test [2] and in test [3] were above 10000 nM and 10000 nM, respectively.

Consider `CN(C)C(=O)N1CCC[C@@H]1C#CCN1CCCC1` [Compound 51E, (R)-N,N-Dimethyl 2-[3-(1-pyrrolidinyl)-1-propynyl]-1-pyrrolidinecarboxamide], for which the ED50 is above 50 mg/kg in test [1] (setting [5]) and 25 mg/kg in test [4]. Besides, the figures for the Ki in test [2] and in test [3] were 43 nM and 12 nM, respectively.

For the compound `CN(C)C(=O)N1CCC[C@H]1C#CCN1CCCC1` [Compound 51F, (S)-N,N-Dimethyl 2-[3-(1-pyrrolidinyl)-1-propynyl]-1-pyrrolidinecarboxamide], the ED50 in test [1] (setting [5]) is above 50 mg/kg; in test [4] it was above 100 mg/kg. Besides, the results for the Ki in test [2] and in test [3] were 2000 nM and 460 nM, respectively.

In the case of `CNC(=O)N1CCC[C@@H]1C#CCN1CCCC1` [Compound 51G, (R)-N-Methyl 2-[3-(1-pyrrolidinyl)-1-propynyl]-1-pyrrolidinecarboxamide], the ED50 in test [1] (setting [5]) was above 50 mg/kg; in test [4], above 100 mg/kg. Further, the Ki was above 10000 nM in test [2] and 240 nM in test [3].

On to `NC(=O)N1CCC[C@@H]1C#CCN1CCCC1` [Compound 51H, (R)-2-[3-(1-pyrrolidinyl)-1-propynyl]-1-pyrrolidinecarboxamide], for which the figures for the ED50 in test [1] (setting [5]) and in test [4] were above 50 mg/kg and above 100 mg/kg, respectively. In addition, the Ki in test [2] is above 10000 nM; in test [3], 440 nM.

Regarding `N#CN1CCC[C@@H]1C#CCN1CCCC1` [Compound 51I, (R)-2-[3-(1-pyrrolidinyl)-1-propynyl]-1-pyrrolidinecarbonitrile], the ED50 was 25 mg/kg in test [1] (setting [5]) and above 30 mg/kg in test [4]. Moreover, the Ki in test [2] is above 10000 nM; in test [3], 310 nM.

On to `COC(=O)N1CCC[C@@H]1C#CCN1CCCC1` [Compound 51J, (R)-Methyl 2-[3-(1-pyrrolidinyl)-1-propynyl]-1-pyrrolidinecarboxylate], for which the figures for the ED50 in test [1] (setting [5]) and in test [4] were 11 mg/kg and above 100 mg/kg, respectively. Further, the results for the Ki in test [2] and in test [3] were 460 nM and 57 nM, respectively.

As to `COC(=O)N1CCC[C@H]1C#CCN1CCCC1` [Compound 51K, (S)-Methyl 2-[3-(1-pyrrolidinyl)-1-propynyl]-1-pyrrolidinecarboxylate], the ED50 is above 50 mg/kg in test [1] (setting [5]) and 97 mg/kg in test [4]. Moreover, the Ki in test [2] is 220 nM; in test [3], 130 nM.

For the compound `CCOC(=O)N1CCC[C@@H]1C#CCN1CCCC1` [Compound 51L, (R)-Ethyl 2-[3-(1-pyrrolidinyl)-1-propynyl]-1-pyrrolidinecarboxylate], the ED50 was above 50 mg/kg in test [1] (setting [5]) and above 100 mg/kg in test [4]. Further, the values for the Ki in test [2] and in test [3] were 760 nM and 50 nM, respectively.
